Measurements reported in BigSolDB 2.1.

Cc1c(C(=O)c2c[nH]n(C)c2=O)ccc(S(C)(=O)=O)c1C1=NOCC1
solubility (mole fraction)
Conditions | 283.15 K | 288.15 K | 293.15 K | 298.15 K | 303.15 K | 308.15 K | 313.15 K | 318.15 K | 323.15 K
in THF | 0.00274 | 0.0031 | 0.00351 | 0.00397 | 0.00449 | 0.00509 | 0.00576 | 0.00652 | 0.00738
in acetone | 0.00112 | 0.0013 | 0.00151 | 0.00176 | 0.00204 | 0.00236 | 0.00274 | 0.00318 | 0.0037
in acetonitrile | 0.000648 | 0.000778 | 0.000934 | 0.00112 | 0.00134 | 0.00161 | 0.00194 | 0.00232 | 0.00279
in ethanol | 6.16e-05 | 8.08e-05 | 0.000106 | 0.000139 | 0.000182 | 0.000239 | 0.000314 | 0.000412 | 0.000541
in ethyl acetate | 0.000521 | 0.000624 | 0.000747 | 0.000894 | 0.00107 | 0.00128 | 0.00153 | 0.00183 | 0.0022
in isobutanol | 4.16e-05 | 5.6e-05 | 7.53e-05 | 0.000101 | 0.000137 | 0.000184 | 0.000247 | 0.000333 | 0.000449
in isobutyl acetate | 0.000421 | 0.000481 | 0.000549 | 0.000627 | 0.000716 | 0.000818 | 0.000934 | 0.00107 | 0.00122
in isopropanol | 3.8e-05 | 5.11e-05 | 6.87e-05 | 9.23e-05 | 0.000124 | 0.000167 | 0.000224 | 0.000302 | 0.000405
in isopropyl acetate | 0.000297 | 0.000353 | 0.00042 | 0.000499 | 0.000594 | 0.000706 | 0.000839 | 0.000997 | 0.00119
in methanol | 0.000139 | 0.000173 | 0.000215 | 0.000267 | 0.000333 | 0.000414 | 0.000516 | 0.000642 | 0.000799
in methyl acetate | 0.000989 | 0.00116 | 0.00135 | 0.00157 | 0.00184 | 0.00215 | 0.00251 | 0.00293 | 0.00342
in n-butanol | 6.22e-05 | 8.09e-05 | 0.000105 | 0.000137 | 0.000178 | 0.000232 | 0.000301 | 0.000392 | 0.00051
in n-butyl acetate | 0.000355 | 0.000419 | 0.000495 | 0.000584 | 0.00069 | 0.000815 | 0.000962 | 0.00114 | 0.00134
in n-propanol | 5.61e-05 | 7.35e-05 | 9.63e-05 | 0.000126 | 0.000165 | 0.000217 | 0.000284 | 0.000372 | 0.000488
in n-propyl acetate | 0.000415 | 0.000496 | 0.000594 | 0.00071 | 0.000849 | 0.00101 | 0.00121 | 0.00145 | 0.00173
in toluene | 0.000256 | 0.0003 | 0.00035 | 0.00041 | 0.000479 | 0.00056 | 0.000655 | 0.000766 | 0.000895
